Measured values taken from PubChem BioAssay AID2060604 (Molecular Pharmacology Branch, DTP, NCI, 2025).

Test system: 379773-124-R-J2-PDC complex spheroids, viability % test/control
Assay: Anticancer human tumor 379773-124-R-J2-PDC patient-derived endometrial carcinoma cell line growth inhibition [CLK]
Conditions: for IC50: curve of first compound; for viability, T/C: stronger effect = lower value; active = viability on the fitted dose curve at most 10% of control; inactive = the rest
How it was run: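 Multi-cell-type spheroids combined patient-derived tumor cells with HUVEC endothelial cells and human mesenchymal stem cells. Paired agents were dosed in half-log steps down from about clinical Cmax, or from 10 microM where Cmax was unknown.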

[1] = second compound 0.0316 µM, first compound 0.0316 µM
[2] = second compound 0.0316 µM, first compound 0.1 µM
[3] = second compound 0.0316 µM, first compound 0.316 µM
[4] = second compound 0.0316 µM, first compound 1 µM
[5] = second compound 0.0316 µM, first compound 3.16 µM
[6] = second compound 0.0316 µM, first compound 10 µM
[7] = second compound 0.1 µM, first compound 0.0316 µM
[8] = second compound 0.1 µM, first compound 0.1 µM
[9] = second compound 0.1 µM, first compound 0.316 µM
[10] = second compound 0.1 µM, first compound 1 µM
[11] = second compound 0.1 µM, first compound 3.16 µM
[12] = second compound 0.1 µM, first compound 10 µM
[13] = second compound 0.316 µM, first compound 0.0316 µM
[14] = second compound 0.316 µM, first compound 0.1 µM
[15] = second compound 0.316 µM, first compound 0.316 µM
[16] = second compound 0.316 µM, first compound 1 µM
[17] = second compound 0.316 µM, first compound 3.16 µM
[18] = second compound 0.316 µM, first compound 10 µM
[19] = second compound 1 µM, first compound 0.0316 µM
[20] = second compound 1 µM, first compound 0.1 µM
[21] = second compound 1 µM, first compound 0.316 µM
[22] = second compound 1 µM, first compound 1 µM
[23] = second compound 1 µM, first compound 3.16 µM
[24] = second compound 1 µM, first compound 10 µM
[25] = second compound 3.16 µM, first compound 0.0316 µM
[26] = second compound 3.16 µM, first compound 0.1 µM
[27] = second compound 3.16 µM, first compound 0.316 µM
[28] = second compound 3.16 µM, first compound 1 µM
[29] = second compound 3.16 µM, first compound 3.16 µM
[30] = second compound 3.16 µM, first compound 10 µM
[31] = second compound 10 µM, first compound 0.0316 µM
[32] = second compound 10 µM, first compound 0.1 µM
[33] = second compound 10 µM, first compound 0.316 µM
[34] = second compound 10 µM, first compound 1 µM
[35] = second compound 10 µM, first compound 3.16 µM
[36] = second compound 10 µM, first compound 10 µM
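Note: compound exposure lasted seven days before the viability readout.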
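Throughout, for viability, T/C: 100% = DMSO vehicle control wells.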

COc1ccc([C@@H](O)c2cc(-c3ncnc4cc(N5CCOCC5)ccc34)c(F)cc2Cl)nn1 + CN1CCN(c2cc(C(=O)Nc3cc4cc(-c5cnn(C)c5)ccc4cn3)ccn2)CC1
< 31.6 nM: IC50 (second compound 0.316 µM) | IC50 (second compound 1 µM) | IC50 (second compound 3.16 µM) | IC50 (second compound 10 µM)
2820 nM: IC50 (second compound 0.1 µM)
5320 nM: IC50 (second compound 0.0316 µM)
inactive: viability, T/C [1] 87.4% | viability, T/C [2] 80.7% | viability, T/C [3] 96.9% | viability, T/C [4] 79.2% | viability, T/C [5] 71.8% | viability, T/C [6] 24.4% | viability, T/C [7] 70.2% | viability, T/C [8] 76.5% | viability, T/C [9] 86.2% | viability, T/C [10] 47% | viability, T/C [11] 55% | viability, T/C [12] 19.1% | viability, T/C [13] 14.9% | viability, T/C [14] 16.6% | viability, T/C [15] 16.6% | viability, T/C [16] 17.7% | viability, T/C [17] 12.9% | viability, T/C [18] 5.38%
active: viability, T/C [19] 0.1% | viability, T/C [20] 0.09% | viability, T/C [21] 0.11% | viability, T/C [22] 0.05% | viability, T/C [23] 1.5% | viability, T/C [24] 0.08% | viability, T/C [25] 0.65% | viability, T/C [26] 1.73% | viability, T/C [27] 0.73% | viability, T/C [28] 0.06% | viability, T/C [29] 0.09% | viability, T/C [30] 0.08% | viability, T/C [31] 0.49% | viability, T/C [32] 0.1% | viability, T/C [33] 0.79% | viability, T/C [34] 0.11% | viability, T/C [35] 0.24% | viability, T/C [36] 0.14%

COc1cccc2c1C(=O)c1c(O)c3c(c(O)c1C2=O)CC(O)(C(=O)CO)CC3OC1CC(N)C(O)C(C)O1 (stereo not drawn) + CN1CCN(c2cc(C(=O)Nc3cc4cc(-c5cnn(C)c5)ccc4cn3)ccn2)CC1
active: viability, T/C [3] 5.69% | viability, T/C [4] 3.76% | viability, T/C [5] 0.3% | viability, T/C [6] 0.91% | viability, T/C [9] 9.14% | viability, T/C [10] 3.16% | viability, T/C [11] 0.33% | viability, T/C [12] 0.09% | viability, T/C [13] 8.53% | viability, T/C [14] 8.1% | viability, T/C [15] 3.09% | viability, T/C [16] 2.71% | viability, T/C [17] 0.12% | viability, T/C [18] 0.21% | viability, T/C [19] 0.13% | viability, T/C [20] 0.1% | viability, T/C [21] 0.78% | viability, T/C [22] 1.01% | viability, T/C [23] 0.06% | viability, T/C [24] 0.16% | viability, T/C [25] 2.21% | viability, T/C [26] 0.27% | viability, T/C [27] 1.48% | viability, T/C [28] 0.04% | viability, T/C [29] 0.07% | viability, T/C [30] 0.17% | viability, T/C [31] 1.64% | viability, T/C [32] 0.35% | viability, T/C [33] 0.12% | viability, T/C [34] 2.01% | viability, T/C [35] 0.31% | viability, T/C [36] 0.12%
< 31.6 nM: IC50 (second compound 0.0316 µM) | IC50 (second compound 0.1 µM) | IC50 (second compound 0.316 µM) | IC50 (second compound 1 µM) | IC50 (second compound 3.16 µM) | IC50 (second compound 10 µM)
inactive: viability, T/C [1] 41% | viability, T/C [2] 11.9% | viability, T/C [7] 30.5% | viability, T/C [8] 10.3%

CCCS(=O)(=O)Nc1ccc(F)c(C(=O)c2c[nH]c3ncc(-c4ccc(Cl)cc4)cc23)c1F + CNC(=O)c1ccc(Nc2nc(OC3CCCC3)c3c(-c4ccc5nc(C)oc5c4)c[nH]c3n2)c(OC)c1
8070 nM: IC50 (second compound 0.0316 µM)
< 31.6 nM: IC50 (second compound 0.1 µM) | IC50 (second compound 0.316 µM) | IC50 (second compound 1 µM) | IC50 (second compound 3.16 µM) | IC50 (second compound 10 µM)
inactive: viability, T/C [1] 74.1% | viability, T/C [2] 81.7% | viability, T/C [3] 82.3% | viability, T/C [4] 91.5% | viability, T/C [5] 72.3% | viability, T/C [6] 44.9% | viability, T/C [7] 42% | viability, T/C [8] 39% | viability, T/C [9] 34.4% | viability, T/C [10] 41.1% | viability, T/C [11] 38% | viability, T/C [12] 17.4% | viability, T/C [13] 39.5% | viability, T/C [14] 30.1% | viability, T/C [15] 39% | viability, T/C [16] 38.6% | viability, T/C [17] 39.8% | viability, T/C [18] 22.2% | viability, T/C [19] 38.7% | viability, T/C [20] 35.2% | viability, T/C [21] 31% | viability, T/C [22] 31.6% | viability, T/C [23] 35.8% | viability, T/C [24] 19% | viability, T/C [25] 35% | viability, T/C [26] 36.7% | viability, T/C [27] 35.7% | viability, T/C [28] 32.3% | viability, T/C [29] 32.4% | viability, T/C [30] 18.2% | viability, T/C [31] 33.5% | viability, T/C [32] 27.9% | viability, T/C [33] 29.6% | viability, T/C [34] 39.1% | viability, T/C [35] 40.4% | viability, T/C [36] 13.2%

COC1C=CCC(C)C(C)S(=O)(=O)NC(=O)c2ccc3c(c2)N(CC2CCC21)CC1(CCCc2cc(Cl)ccc21)CO3 (stereo not drawn) + CNC(=O)c1ccc(Nc2nc(OC3CCCC3)c3c(-c4ccc5nc(C)oc5c4)c[nH]c3n2)c(OC)c1
< 31.6 nM: IC50 (second compound 0.1 µM) | IC50 (second compound 0.316 µM) | IC50 (second compound 1 µM) | IC50 (second compound 3.16 µM) | IC50 (second compound 10 µM)
active: viability, T/C [6] 3.4% | viability, T/C [18] 2.22% | viability, T/C [24] 2.26% | viability, T/C [30] 1.56% | viability, T/C [36] 1.66%
inactive: viability, T/C [1] 85.2% | viability, T/C [2] 82.8% | viability, T/C [3] 90.5% | viability, T/C [4] 90% | viability, T/C [5] 90% | viability, T/C [7] 41.3% | viability, T/C [8] 35.1% | viability, T/C [9] 33.8% | viability, T/C [10] 29.2% | viability, T/C [11] 37% | viability, T/C [12] 3.05% | viability, T/C [13] 37.3% | viability, T/C [14] 39.6% | viability, T/C [15] 30.1% | viability, T/C [16] 20.1% | viability, T/C [17] 20.5% | viability, T/C [19] 36.4% | viability, T/C [20] 36.4% | viability, T/C [21] 25.6% | viability, T/C [22] 20.1% | viability, T/C [23] 18.1% | viability, T/C [25] 31.5% | viability, T/C [26] 33.8% | viability, T/C [27] 23.3% | viability, T/C [28] 18.4% | viability, T/C [29] 13% | viability, T/C [31] 35.1% | viability, T/C [32] 42.5% | viability, T/C [33] 30.4% | viability, T/C [34] 21.6% | viability, T/C [35] 11.7%
5290 nM: IC50 (second compound 0.0316 µM)
